The source of these data is paper PMC12176268, “Structural Features and Photophysical and Antiproliferative Properties of Me2N‑pbt-Cycloplatinated Complexes with Picolinate Ligands” (Inorganic Chemistry, 2025).

Where two headings read alike, the source gives them in different places.

Data set [1] in a line: Singlet oxygen generation, NIR emission at 1274 nm versus phenalenone. Format: physicochemical. The note with it: aerated acetonitrile 5 × 10^–5 M, 298 K, excitation 365 nm, reference phenalenone. As to the method: In aerated DMSO solutions, complexes 1–3 display a fluorescence band only at ca 510 nm, attributed to ^1LL′CT/^1ILCT, due to easy quenching of the phosphorescence by oxygen. However, upon prolonged photoexcitation at 365 nm, a continuous enhancement of the phosphorescence band is observed. Simply irradiating with a hand UV–vis lamp, the initial blue-green emission gradually shifts to the orange enhanced emission. The phosphorescence increases its maximum intensity in ca 15 1, 8 2, or 12 min 3 (Figures and S23). […] This relatively rare behavior has been previously observed by us , and other groups, and is explained by the occurrence of a local sensitization caused by energy transfer from the low-energy triplet to ^3O2-producing singlet ^1O2, which is able to selectively react with the solvent creating a free oxygen microenvironment that switches-on a phosphorescence band due to ^3ILCT at 580 nm. The strong sensitivity of the phosphorescence emission in these complexes encourages us to determine their efficiency as ^1O2 sensitizers. The singlet oxygen generation of complexes 1–3 was examined in acetonitrile solution (5 × 10^–5 M) using a near-infrared detector upon excitation at 365 nm, detecting the characteristic emission profile of ^1O2 at λem ∼ 1274 nm (Figure ).

Data set [2] in a line: Catalytic oxidation and photooxidation of NADH monitored by 1H NMR. The class given is biochemical. From the text: NADH is a key coenzyme involved in many biocatalyzed redox reactions in living cells, and the adequate redox balance of the NADH/NAD^+ redox couple is an important indicator of the metabolic state of the cell. Indeed, the overall in-cell NADH level is higher in cancerous cells than in normal cells to ensure high cell proliferation. Therefore, any selective catalysis of intracellular NADH oxidation to NAD^+ by a metal complex in cancer cells can disrupt its intracellular redox balance, causing cell death. , The catalytic oxidation and photooxidation of NADH (2.8 mM) by 3 (0.8 mM) in DMSO/D2O (5/95 v/v) was monitored by ^1H NMR spectroscopy at 298 K (Figure S34). In the dark (NADH + 3 + dark), a new set of characteristic peaks at 9.33, 9.17, 8.81, 8.48, 8.43, 8.20, 8.16, 6.04, and 5.97 ppm, ascribed to the protons of NAD^+ (∼8%), were detected after 72 h. Light irradiation greatly accelerates the oxidation process. In fact, ∼33% of NADH was oxidized to NAD^+ after irradiation (460 nm, 2 h), with an oxidation turnover number (TON) of 1.4 after 2 h (TOF 0.7 h^–1). […] It should be noted that platinum(II) complexes showing biocatalytic activity on the NADH/NAD^+ redox couple are very scarce.
The time dependence of the catalytic oxidation and photooxidation of complex 3 (0.8 mM) with NADH (2.8 mM) in DMSO/D2O (5/95 v/v) was studied for 72 h in the dark or 2h with light irradiation (λexc = 460 nm) by ^1H NMR at 298 K. The conversion of NADH to NAD^+ was approximately calculated from the NMR data.

The test system of data set [3] is MCF-10A. Nature of the data set: MTT cell viability assay on noncancerous MCF-10A cells, dark and 450 nm irradiation. Format: cell-based, human. The note with it: for EC50: MTT. From the text:
(C∧N) cyclometalated Pt(II) complexes have been previously reported to have strong antiproliferative activities when associated with phenanthroline-based, diphosphine, acyclic diamino carbenes, or picolinate ligands. In particular, (Me2N-pbt)-cyclometalated platinum complexes have been previously reported by some of us to have antiproliferative properties in the micromolar range on a panel of cancer cell lines, prompting us to investigate the anticancer properties of complexes 1–4 in dark conditions and, considering their high quantum yield (ϕΔ) of ^1O2 generation, under irradiation conditions. Due to the poor solubility of the complexes in an aqueous environment, complexes 1–4 were first dissolved in DMSO and diluted in the culture media to reach a final concentration of 1% DMSO when incubated with the cells. All complexes were screened against the so-called “triple-negative” breast cancer cell line MDA-MB-231, lung adenocarcinoma cell line A549, and the noncancerous breast cell line MCF-10A for 72 h in dark conditions and under 5 min irradiation at 450 nm (see Experimental Section for details). The irradiation time was kept short to prevent light-induced toxicity of the energetic wavelength observed at longer irradiation times (data not shown). The measurement of the effective concentration at 50% (EC50) was carried out using the classical MTT assay, and the data are provided in Table .
In dark conditions, we could notice a strong influence of substituents on the picolinate ligands. […] This can be correlated with its poor stability in the culture medium mentioned above, which might reduce its cellular uptake. […] However, in dark conditions, no particular selectivity for cancer cells could be observed with similar activity measured against the noncancerous cell line MCF-10A. For the “light” experiments, the cells were preincubated with the complexes for 4 h in the dark, irradiated at 450 nm for 5 min, and then put back in the dark until 72 h. The photoactivity index (PI) values, defined as the ratio between the EC50 in dark conditions and the EC50 after irradiation for each cell line, are shown in Figure .
The human lung adenocarcinoma cell line A549 and human breast cancer cell line MDA-MB-231 were cultivated in DMEM (Dulbecco’s modified Eagle’s medium) containing GlutaMax I supplemented with 10% FBS at 37 °C in a humidified atmosphere and 5% CO2. The noncancerous cell line MCF-10A was maintained in DMEM:F12 (1:1) cell culture media, 5% heat-inactivated horse serum, supplemented with HEPES (20 mM), L-glutamine (2 mM), epidermal growth factor (20 ng/mL), hydrocortisone (500 ng/mL), cholera toxin (100 ng/mL), and insulin (10 μg/mL). Cell viability was evaluated by using a colorimetric method based on the tetrazolium salt MTT [3-(4,5-dimethylthiazol-2-yl)-2,5-diphenyltetrazolium bromide], which is reduced by viable cells to yield purple formazan crystals. Cells were seeded in 96-well plates at a density of 40000 cells/mL (100 μL per well). Stock solutions were prepared in DMSO for complexes 1–4 and in water for cisplatin. […] For dark experiments, after overnight attachment, a dilution series of the compounds was added to the medium, and the cells were incubated for a further 72 h. For the irradiated experiments, after overnight attachment, a dilution series of the compounds was added to the medium, and the cells were preincubated for 4 h. The cells were then irradiated at 450 nm for 5 min with a Kessil Lamp (power: 3 mW/cm^2, 1.13 × 10^–8 Einstein/s at 20 cm distance between the light source and 96-well plate) and the incubation was continued until 72 h. After 72 h, the medium was removed and the cells were incubated with MTT solution in PBS (10 μL of 5 mg/mL) for 2–3 h. The formed purple formazan crystals were dissolved in 100 μL of DMSO by thorough shaking, and the absorbance at 580 nm was read using a microplate reader (FLUOstar OPTIMA, BMG Labtech). Each test was performed with at least 3 replicates and repeated at least 3 times. […]
A general note: Tetrazolium assays rely on reduction of a dye to a coloured formazan, in cell work by metabolically active cells.

The term EC50 denotes the concentration needed to bring the measured effect to its halfway point. Turning to “[Pt(Me2N-pbt)(3-OH-pic-κN,O)] [Complex 3]”, in data set [1], the “quantum yield (ϕΔ) of 1O2” value worked out at 16.2%. The same substance registered a TOF in data set [2] (460 nm irradiation, 2 h) of 0.7 h^–1. Moreover, the “oxidation turnover number (TON)” value in data set [2] (460 nm irradiation, after 2 h) amounted to 1.4. Further, the “NADH oxidized to NAD+ after irradiation” value in data set [2] (NADH 2.8 mM, complex 0.8 mM, DMSO/D2O 5/95, 298 K, 460 nm, 2 h) was around 33%. The “NAD+ formed from NADH in the dark” value in data set [2] (NADH 2.8 mM, complex 0.8 mM, DMSO/D2O 5/95, 298 K, dark, 72 h) was around 8%. For the same substance, the “photoactivity index (PI), EC50 dark / EC50 after irradiation, MCF-10A” value in data set [3] (5 min irradiation at 450 nm) was below 2. The EC50 in data set [3] (4 h preincubation, 5 min irradiation at 450 nm, then dark until 72 h, read-out: EC50 MCF-10A light) was found to be 0.52 ± 0.05 µM; in data set [3] (72 h incubation at 37 °C, dark, read-out: EC50 MCF-10A dark), 1 ± 0.2 µM.
